Laboratory results reported in PMC12650265 (The Journal of Experimental Medicine, 2025).

Columns and labels:
[1] = test system: CD3^+ MR1-5-OP-RU tetramer^+ MAIT cells; assay: MAIT cell proliferation in CTV-labeled PBMCs; type: cell-based, human; conditions: 7-day culture, 5-OP-RU 10 µM, others 100 µM
soluble WT MR1 = assay: fluorescence-based thermal shift (thermostability) assay of MR1–ligand complexes; type: binding, human; conditions: MR1 refolded with the ligand, SYPRO Orange, 28 to 95°C, three independent experiments
MAIT cells from PBMCs = assay: primary MAIT cell activation in PBMCs (CD69, TNF); type: cell-based, human; conditions: 16-h incubation
[2] = test system: T1, folded MR1 in C1R.MR1 cells; assay: intracellular total folded MR1 by flow cytometry (8F2.F9); type: cell-based, human; conditions: 16 h, 100 µM
T1 construct: expressed in transfected cells; host or cells: C1R B lymphoblastoid cells transduced with MR1*01

MR1 in C1R.MR1 cells = test system: T2, MR1 in C1R.MR1 cells; assay: Endo H treatment and western blot of intracellular MR1; type: cell-based, human; conditions: 16 h, Ac-6-FP 10 μM, RF and catabolites 100 μM
T2 construct: expressed in transfected cells; host or cells: C1R B lymphoblastoid cells transduced with MR1*01
Procedure: The downregulation of MR1 on the cell surface by the RF catabolites could be due to the depletion of the intracellular ER-resident MR1 pool, or due to the retention of MR1 in the ER, as shown for the DB28 ligand ([Salio et al., 2020]). To investigate this, C1R.MR1 cells were treated for 16 h with 100 µM RF or RF catabolites, conditions that induce MR1 downregulation (Fig. 3 A). Cells were lysed, and treated with endoglycosidase (Endo) H, to distinguish molecules that remain within the ER from those that have trafficked to the cell surface ([McWilliam et al., 2016]), and then, MR1 levels were assessed by immunoblotting (Fig. 3 A).
C1R.MR1 cells were cultured with different RF catabolites for 16 h, at 37°C. Samples were then treated with or without Endo H for 1-h incubation at 37°C. Cells were lysed, and lysate protein concentration was quantified by BCA assay. Equal amounts of samples (40 µg total protein) were separated on SDS-PAGE gels before being transferred onto nitrocellulose membranes and incubated with primary (anti-MR1; clone 8G3) ([McWilliam et al., 2020]) then corresponding secondary antibody (IRDye 800CW anti-mouse IgG, Cat. No. 925-32210; LICORbio). The protein bands were visualized by the Li-Cor system.

[3] = test system: T3, MR1^R9H on C1R.MR1^R9H cells; assay: cell surface MR1^R9H by flow cytometry; type: cell-based, human
T3 construct: expressed in transfected cells; host or cells: C1R cells stably transduced with MR1^R9H
Source text: (§1) We then tested the effect of the RF catabolites on the expression of two mutant versions of MR1 termed MR1^R9H ([Howson et al., 2020]) and MR1^K43A ([Reantragoon et al., 2013]). First, we tested the MR1^R9H mutant ([Howson et al., 2020]), which represents a rare, natural human polymorph. […] We used C1R.MR1^R9H cells, which are produced by stable transduction of wild-type C1R cells, which express low levels of wild-type MR1, with a vector expressing the MR1^R9H mutant ([Howson et al., 2020]). […] When C1R. […] Next, we sought to understand how the previously characterized K43A mutation affects ligand binding.
The level of MR1 expressed on the cell surface was measured after the exposure to the investigated ligands as previously described ([Awad et al., 2020a]; [Wang et al., 2022a]). C1R Ag-presenting B lymphocytes overexpressing MR1*01 (C1R.MR1), MR1^K43A mutant (C1R.MR1^K43A), MR1^R9H mutant (C1R.MR1^R9H), or HLA-A*02:01 (C1R-A2), in addition to the monocytic THP-1-MR1 cells, were used in this study. […] The PE fluorescence intensity reflects the surface MR1 level. The data were acquired with LSRFortessa X-20 (BD Biosciences) and Diva software (BD Biosciences) and analyzed using FlowJo software (BD Biosciences).

hMR1 protein = molecular target: T4, hMR1 protein (Homo sapiens, UniProt Q95460); assay: fluorescence polarization–based cell-free assay, competition with JYM20 for MR1 binding; conditions: 50% inhibition of 10 nM JYM20 binding to 100 nM empty hMR1, 37°C; three independent experiments in triplicate
T4 construct: plasmids encoding for the extracellular domains of MR1, β2m, and the AF-7 TCRα and TCRβ chains; made in house; host or cells: Escherichia coli BL21(DE3)

[4] = test system: T5, human MR1–β2-microglobulin (β2m) complex; assay: refolding of recombinant MR1-β2m with ligand; type: binding; conditions: ligand added to refolding buffer; gel filtration and SDS-PAGE
T5 construct: plasmids encoding for the extracellular domains of MR1, β2m, and the AF-7 TCRα and TCRβ chains; made in house

[5] = test system: T6, surface MR1*01 on C1R.MR1 cells; assay: quantification of cell surface MR1 by flow cytometry, C1R.MR1 cells; type: cell-based, human; conditions: C1R.MR1 cells, 3 h, 1–200 µM, 8F2F9 antibody
T6 construct: expressed in transfected cells; host or cells: C1R B lymphoblastoid cells transduced with MR1*01

[6] = test system: T7, MR1^K43A on C1R.MR1^K43A cells; assay: cell surface MR1^K43A by flow cytometry; type: cell-based, human; conditions: 3 h
T7 construct: expressed in transfected cells; host or cells: C1R cells overexpressing MR1^K43A
Source text: as §1
The level of MR1 expressed on the cell surface was measured after the exposure to the investigated ligands as previously described ([Awad et al., 2020a]; [Wang et al., 2022a]). C1R Ag-presenting B lymphocytes overexpressing MR1*01 (C1R.MR1), MR1^K43A mutant (C1R.MR1^K43A), MR1^R9H mutant (C1R.MR1^R9H), or HLA-A*02:01 (C1R-A2), in addition to the monocytic THP-1-MR1 cells, were used in this study. 2 × 10^5 cells were incubated with RF catabolites for 3 or 16 h at 37°C and 5% CO2 in 200 μl folate-free RPMI 1640 medium from Gibco (Cat. No. 11875-093) fortified with 10% fetal bovine serum, sodium pyruvate (1 mmol/L), HEPES buffer (15 mmol/L), pH 7.2–7.5, 2% penicillin (100 U/ml), streptomycin ([…]), GlutaMAX (2 mmol/L), nonessential amino acids (0.1 mmol/L) (all from Thermo Fisher Scientific, Life Technologies), and 2-mercaptoethanol ([…], Sigma-Aldrich) (RF-10). After incubation, the cells were first stained with Zombie Aqua Fixable Viability Kit from BioLegend (Cat. No. 423102) and then incubated with biotinylated 8F2F9 αMR1 antibody for 30 min on ice. The unbound antibody was then washed off with 2% fetal bovine serum/PBS (called 2% FACS hereafter) buffer. The cells were finally incubated with PE-conjugated streptavidin (30 μg/ml; BioLegend) and then washed with 2% FACS buffer. The PE fluorescence intensity reflects the surface MR1 level. The data were acquired with LSRFortessa X-20 (BD Biosciences) and Diva software (BD Biosciences) and analyzed using FlowJo software (BD Biosciences).

[7] = test system: SKW-3 cells expressing MAIT TCR AF-7; assay: SKW-3 reporter T cell activation (CD69), coculture with C1R.MR1; type: cell-based
Procedure: (§2) Given the intracellular MR1 retention induced by the RF catabolites, we anticipated that these ligands could influence the activity of MR1-reactive T cells. First, we utilized a system whereby reporter SKW-3 T cell lines were cocultured with C1R.MR1 APCs and activation was determined by CD69 expression. […] In contrast, SKW-3-MBV28 cells were inhibited by alloxazine but activated by lumichrome (Fig. S3, D–F). Two MR1-restricted TRAV1-2^−ve SKW-3 T cell lines were also tested.
(§3) C1R.MR1 cells (1 × 10^5) were initially stained with CTV (Thermo Fisher Scientific) for 15 min and then incubated with RF catabolites for 20 h. […] Cells were subsequently stained with PE-Cy7-conjugated anti-CD69 (1:100; BD Biosciences) and PE-labeled anti-MR1 (1:100, clone 26.5; BD Biosciences), before analysis on a LSRFortessa (BD Biosciences) flow cytometer. Activation of the SKW-3 cells was reflected by the cell surface CD69 expression.

SKW-3-MAV36 line = assay: as above; type: cell-based; conditions: SKW-3-MAV36, in the presence of 5-OP-RU
Procedure: as §2, §3

SKW-3-DGB129 line = assay: as above; type: cell-based; conditions: SKW-3-DGB129 cocultured with C1R.MR1
Procedure: as §2, §3

[8] = test system: SKW-3 cells expressing MAIT TCR MBV28; assay: as above; type: cell-based; conditions: SKW-3-MBV28, in the presence of 5-OP-RU
Procedure: as §2, §3

[9] = test system: T8, MR1 on PBMC-derived B lymphocytes; assay: MR1 surface expression on primary B cells; type: cell-based; conditions: primary human B cells, 16 h, highest doses, with or without 5-OP-RU
T8 construct: we also measured MR1 on the surface of cells expressing wild-type levels of MR1; endogenous in cells; host or cells: PBMC-derived B lymphocytes from healthy human donors

T4 sequence (Q95460 23-302 limits assumed): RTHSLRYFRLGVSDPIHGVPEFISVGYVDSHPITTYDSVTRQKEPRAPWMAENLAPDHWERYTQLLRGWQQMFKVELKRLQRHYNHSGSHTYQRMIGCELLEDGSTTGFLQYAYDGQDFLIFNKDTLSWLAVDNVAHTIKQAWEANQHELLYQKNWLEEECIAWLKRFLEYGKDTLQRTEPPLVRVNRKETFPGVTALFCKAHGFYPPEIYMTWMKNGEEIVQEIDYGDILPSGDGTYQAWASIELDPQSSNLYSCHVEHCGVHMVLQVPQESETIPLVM
T4 sequence (P61769 21-119 partner): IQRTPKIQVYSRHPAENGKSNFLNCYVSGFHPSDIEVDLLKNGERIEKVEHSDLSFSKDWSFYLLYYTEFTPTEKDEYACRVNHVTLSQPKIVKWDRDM

In the case of `CC(=O)C=Nc1c(NCC(O)C(O)C(O)CO)[nH]c(=O)[nH]c1=O` [5-OP-RU, 5-(2-oxopropylideneamino)-6-D-ribitylaminouracil, reference compound], the MAIT cell proliferation [1] is reported as “significantly proliferated”, the “Tm50 (half-maximum melting temperature), Mean ± SD” value (“Tm50 … Mean ± SD” below) (soluble WT MR1) is reported as 58.14 ± 0.60 °C and the “CD69 upregulation on MAIT cells, ligand alone” value (MAIT cells from PBMCs) is reported as “induced robust CD69 upregulation”.
For `CC(=O)Nc1nc2ncc(C=O)nc2c(=O)[nH]1` [Ac-6-FP, acetyl-6-FP, reference compound], the “total level of folded MR1 (intracellular staining with 8F2.F9)” value [2] was “significantly increased total folded MR1”, the “Endo H–resistant MR1” value (MR1 in C1R.MR1 cells) was “increase in MR1 of a higher molecular weight, in line with Endo H resistance” and the “Tm50 … Mean ± SD” value (soluble WT MR1) was 64.22 ± 0.27 °C. The “MR1^R9H surface level” value [3] was “significantly increased”.
In the case of `O=c1nc2[nH]c3ccccc3nc-2c(=O)[nH]1` [Alloxazine, alloxazine], the IC50 (hMR1 protein) is reported as 13.4 µM, the “total level of folded MR1 (intracellular staining with 8F2.F9)” value [2] is reported as “increased the total level of folded MR1” and the “folding of the MR1-β2m cocomplex in solution” value [4] is reported as “facilitated the correct folding of the MR1-β2m cocomplex”. The “Tm50 … Mean ± SD” value (soluble WT MR1; listed as MR1-Alloxazine) was 50.73 ± 0.45 °C, the “MR1 cell surface expression” value [5] was “reduced MR1 cell surface” and the “MR1^K43A at the cell surface” value [6] was “increased MR1^K43A at the cell surface”. The “reactivity to 5-OP-RU (CD69)” value ([7]; SKW-3-AF-7, in the presence of 1 nM 5-OP-RU) was “not altered”, the “reactivity to RL-7-Me (CD69)” value ([7]; SKW-3-AF-7, in the presence of 100 nM RL-7-Me) was “inhibited in a dose-dependent manner” and the “reactivity to 5-OP-RU (CD69)” value (SKW-3-MAV36 line) was “inhibited”. For the same molecule, the “reactivity of MR1 autoreactive, nucleobase-adduct reactive line (CD69)” value (SKW-3-DGB129 line) was “inhibited”, the “reactivity to 5-OP-RU (CD69)” value [8] was “inhibited” and the MR1 surface expression [9] was “reduced MR1 surface expression”.
